According to ChEMBL document CHEMBL3769322, “Synthesis and evaluation of anticancer and antiobesity activity of 1-ethoxy carbonyl-3,5-bis (3'-indolyl methylene)-4-pyperidone analogs” (Bioorg Med Chem Lett, 2016):

Legend:
[1] = tested on: A549; test: Cytotoxicity against human A549 cells by MTT assay; type: functional, cell-based
[2] = tested on: HepG2; test: Cytotoxicity activity against human HepG2 cells by MTT assay; type: functional, cell-based
[3] = tested on: MCF7; test: Cytotoxicity against human MCF7 cells by MTT assay; type: functional, cell-based
[4] = tested on: HeLa; test: Cytotoxicity against human HeLa cells by MTT assay; type: functional, cell-based
[5] = Cytotoxicity against human SKOV3 cells by MTT assay; type: functional, cell-based; conditions: SK-OV-3
[6] = Inhibition of porcine pancreatic lipase type 2 using p-nitrophenyl laurate as substrate after 2 hrs by UV spectrophotometric analysis; parameters: species or system Sus scrofa

Row | SMILES | IC50 [1] | IC50 [2] | IC50 [3] | IC50 [4] | IC50 [5] | IC50 [6] | IC50 ([6]; read-out: IC50)
1 | CCOC(=O)N1C/C(=C\c2cn(Cc3ccccc3)c3ccccc23)C(=O)/C(=C/c2cn(Cc3ccccc3)c3ccccc23)C1 | > 100 µM | > 100 µM | > 100 µM | > 100 µM | > 100 µM | Not Active | –
2 | CCOC(=O)N1C/C(=C\c2cn(Cc3ccccc3F)c3ccccc23)C(=O)/C(=C/c2cn(Cc3ccccc3F)c3ccccc23)C1 | 29.1 µM | > 100 µM | > 100 µM | > 100 µM | 85.5 µM | – | 56.4 µM
3 | CCOC(=O)N1C/C(=C\c2cn(Cc3ccccc3Cl)c3ccccc23)C(=O)/C(=C/c2cn(Cc3ccccc3Cl)c3ccccc23)C1 | 2.75 µM | > 100 µM | > 100 µM | > 100 µM | 50.6 µM | Not Active | –
4 | CCOC(=O)N1C/C(=C\c2cn(Cc3ccc([N+](=O)[O-])cc3)c3ccccc23)C(=O)/C(=C/c2cn(Cc3ccc([N+](=O)[O-])cc3)c3ccccc23)C1 | 16 µM | > 100 µM | > 100 µM | > 100 µM | > 100 µM | – | 30.9 µM
5 | CCOC(=O)N1C/C(=C\c2cn(Cc3ccc(F)cc3)c3ccccc23)C(=O)/C(=C/c2cn(Cc3ccc(F)cc3)c3ccccc23)C1 | > 100 µM | > 100 µM | > 100 µM | 48 µM | > 100 µM | Not Active | –
6 | CCOC(=O)N1C/C(=C\c2cn(Cc3ccccc3C#N)c3ccccc23)C(=O)/C(=C/c2cn(Cc3ccccc3C#N)c3ccccc23)C1 | > 100 µM | > 100 µM | > 100 µM | > 100 µM | > 100 µM | Not Active | –
7 | CCOC(=O)N1C/C(=C\c2cn(Cc3ccc(Cl)cc3Cl)c3ccccc23)C(=O)/C(=C/c2cn(Cc3ccc(Cl)cc3Cl)c3ccccc23)C1 | > 100 µM | > 100 µM | > 100 µM | > 100 µM | > 100 µM | – | 14.9 µM
8 | CCOC(=O)N1C/C(=C\c2cn(Cc3ccc(Br)cc3)c3ccccc23)C(=O)/C(=C/c2cn(Cc3ccc(Br)cc3)c3ccccc23)C1 | > 100 µM | > 100 µM | > 100 µM | > 100 µM | > 100 µM | Not Active | –
9 | CCOC(=O)N1C/C(=C\c2cn(Cc3ccc(-c4ccccc4C#N)cc3)c3ccccc23)C(=O)/C(=C/c2cn(Cc3ccc(-c4ccccc4C#N)cc3)c3ccccc23)C1 | > 100 µM | > 100 µM | > 100 µM | > 100 µM | > 100 µM | Not Active | –
10 | CCOC(=O)N1C/C(=C\c2cn(C)c3ccccc23)C(=O)/C(=C/c2cn(C)c3ccccc23)C1 | 66.7 µM | > 100 µM | > 100 µM | > 100 µM | 55.1 µM | Not Active | –
11 | CCOC(=O)N1C/C(=C\c2cn(Cc3cccc(Cl)c3)c3ccccc23)C(=O)/C(=C/c2cn(Cc3cccc(Cl)c3)c3ccccc23)C1 | 4.21 µM | 7.33 µM | > 100 µM | > 100 µM | 18 µM | Not Active | –
12 | COc1cc(/C=C/C(=O)CC(=O)/C=C/c2ccc(O)c(OC)c2)ccc1O [CURCUMIN] | 23.5 µM | 4.43 µM | 46.2 µM | 51.9 µM | 49.9 µM | – | –
13 | COc1cccc2c1C(=O)c1c(O)c3c(c(O)c1C2=O)C[C@@](O)(C(=O)CO)C[C@@H]3O[C@H]1C[C@H](N)[C@H](O)[C@H](C)O1 [DOXORUBICIN] | 0.14 µM | 10.2 µM | – | 9.03 µM | 16.4 µM | – | –
14 | CCCCCCCCCCC[C@@H](C[C@@H]1OC(=O)[C@H]1CCCCCC)OC(=O)[C@H](CC(C)C)NC=O [ORLISTAT] | – | – | – | – | – | – | 62.2 µM
